Assay results reported in patent US8492391B2, “Substituted 6-(2-hydroxybenzylamino)purine derivatives, their use as medicaments and compositions containing these derivatives” (Univerzita Palackeho V Olomouci, priority 2009, dated 2013).
“Also recorded” adds a separate entry of the source.

How the values were obtained:
[1] = test system: p53; assay: p53-dependent transcription, β-galactosidase reporter in Arn8 cells; format: cell-based, human; parameters: key to p53 (effect): induction of p53 protein: ++: very strong; +: weak; −: no effect
From the text: Protein p53, accumulated in nuclei upon treatment by the compounds, then leads to trans-activation of natural cell cycle inhibitor p21^WAF1, further blocking the cell cycle. […] This allows qualitative as well as quantitative measurement of CDK inhibitors-induced p53 transcriptional activity via β-galactosidase assay. Then, the effect will be verified in treated cells by immunoblotting of proteins expressed under the control of p53. β-galactosidase activity of human melanoma cell line Arn8 was determined as described. […] Alternatively, β-galactosidase activity was quantified by measuring fluorescence of methylumbelliferyl-β-D-galactopyranoside cleavage product. Cell lines established from the human breast carcinoma (MCF-7) and the human melanoma (Arn8) cell lines were cultured in Dubecco's Modified Eagle Medium (DMEM) supplemented with 10% foetal bovine serum.
Effects of prepared compounds on activation of p53 protein were analysed in human melanoma cell line Arn8. […] The total β-galactosidase activity in Arn8 cells was quantified using a fluorimetric assay.

[2] = test system: p53, p21^WAF1, Mcl-1 in MCF-7 cells; assay: Immunoblotting of p53, p21WAF1 and Mcl-1 in MCF-7 cells; format: cell-based, human; details: MCF7, 24 h, concentration dependent, immunoblotting
Procedure: (§1) For immunoblotting, cell were detached with rubber policeman and washed three times with ice-cold PBS and lysed in buffer (50 mM Tris, pH 7.4, 250 mM NaCl, 5 mM EDTA, 50 mM NaF, 1 mM Na3VO4, 1% Nonidet P40) containing mixture of protease and phosphatase inhibitors (Sigma-Aldrich, USA). 20 μg of total proteins were separated by SDS-polyacrylamide gel electrophoresis (SDS-PAGE) and transferred onto nitrocellulose membranes. Membranes were blocked in 5% milk and 0.1% Tween 20 in PBS and probed overnight with specific monoclonal antibodies or rabbit polyclonal sera. Primary antibodies specific for p53 (DO-1, in house), p21^WAF1 (118, in house), PARP-1 (2C10, Sigma-Aldrich St Louis, Mo., USA), Mcl-1 (S-19, Santa Cruz, USA), all used at 1 μg/ml. All primary antibodies were diluted in PBS containing 5% powdered milk; 0.1% Tween 20. Peroxidase conjugated rabbit anti-mouse immunoglobulin or porcine anti-rabbit immunoglobulin antisera (DAKO, Denmark) were used as the secondary antibodies and visualised with ECL reagents (Amersham-Pharmacia, Little Chalfont, UK).
The induction of p53 protein was apparent in 4 hrs but enhanced level of p21^WAF1 protein was observed only 12 hours after treatment with compound 128 (FIG. 5). The periods of time 12 and 24 hrs were chosen, since the level of protein expression reached a steady state.

[3] = test system: C-terminal domain of RNA polymerase II (serine 2 and serine 5 phosphorylation); assay: Immunoblotting of RNA polymerase II CTD phosphorylation (CDK9 activity in cells), MCF-7; format: cell-based, human; details: MCF-7 cells
Procedure: Effect of compounds on CDK9 activity in cells was monitored by site-specific phosphorylations of C-terminal domain of RNA polymerase II, a substrate of CDK9, by means of immunoblotting. For immunoblotting, cell were detached with rubber policeman and washed three times with ice-cold PBS and lysed in buffer (50 mM Tris, pH 7.4, 250 mM NaCl, 5 mM EDTA, 50 mM NaF, 1 mM Na3VO4, 1% Nonidet P40) containing mixture of protease and phosphatase inhibitors (Sigma-Aldrich, USA). 20 μg of total proteins were separated by SDS-polyacrylamide gel electrophoresis (SDS-PAGE) and transferred onto nitrocellulose membranes. Membranes were blocked in 5% milk and 0.1% Tween 20 in PBS and probed overnight with specific monoclonal antibodies or rabbit polyclonal sera. Primary antibodies specific for RNA polymerase II (all from Santa Cruz Biotechnology, California, USA) included: (i) N-20 used at 1 μg/ml, (ii) H14, specific for form phosphorylated at phosphoserine 5, used at 6 μg/ml and (iii) H5, specific for form phosphorylated at phosphoserine 2 used at 4 μg/ml. […] All primary antibodies were diluted in PBS containing 5% powdered milk; 0.1% Tween 20. Peroxidase conjugated rabbit anti-mouse immunoglobulin or porcine anti-rabbit immunoglobulin antisera (DAKO, Denmark) were used as the secondary antibodies and visualised with ECL reagents (Amersham-Pharmacia, Little Chalfont, UK). […]

[4] = test system: β-adrenergic receptors; assay: Modulation of the activity of β-adrenergic receptors (isoproterenol-induced cAMP synthesis in C6 glioma); format: cell-based; details: rat C6 glioma, cAMP synthesis induced by 5 μM (−) isoproterenol, 30 min, simultaneous addition
Procedure: Mechanism of action of novel compounds is presented on FIG. 2. […] Incubation was at 37° C. in a humidified atmosphere. Assays were performed in the logaritmic growth phase at a density of 2.5×10^5 cells/cm^2. Intracellular cAMP synthesis was induced by addition of 5 μM (−) isoproterenol. After 30 min incubation at 37° C. the medium was removed and the cellular amount of cAMP determined using the cAMP-enzyme immunoassay kit of Amersham. The I50 is determined from a dose-response curve in duplicate. The effect of several novel substituted 6-(2-hydroxybenzylamino)purine derivatives was measured after simultaneous addition with isoproterenol.
As P2Y1-like and A2 purinergic receptors, negatively and positively coupled to adenylate cyclase respectively, are present on rat C6 glioma. It has to be determined if the modulation of the synthesis of cAMP is due to inhibition of the activation of β-adrenergic receptors by isoproterenol are due to activation of purinergic receptors.

[5] = test system: p53 in RPMI-8226 cells; assay: Immunoblotting in RPMI-8226 cells with temperature-sensitive p53 (E285K) at permissive and restrictive temperature; format: cell-based, human; details: RPMI-8226 cells, 30° C. versus restrictive temperature
Procedure: as §1, with “Primary antibodies specific for p53 (DO-1, in house), p21^WAF1 (118, in house), PARP-1 (2C10, Sigma-Aldrich St Louis, Mo., USA), Mcl-1 (S-19, Santa Cruz, USA), all used at 1 μg/ml.” left out
Then, we also determined effect of the compounds on the cell lines expressing some temperature-sensitive mutants of p53. For example, in BT474 and RPMI-8226 cells bearing temperature-sensitive mutant of p53 (E285K), p53 protein switches between mutant and wild-type conformation in a temperature-dependent manner. At restrictive (37° C.) temperature mutated p53 protein is expressed, while after shift to a permissive (30° C.) temperature p53 is folded correctly and functional. To analyze the functional involvement of p53 in the efficiency of the treatment with the compounds, we cultivated RPMI-8226 cells independently at two different temperatures (restrictive or permissive), and exposed them to increasing doses of selected compounds. The cell lysates were prepared and the levels of cell cycle regulators were analysed by immunoblotting.

## CC[C@H](CO)Nc1nc(NCc2ccccc2)c2ncn(C(C)C)c2n1 [ROSC, roscovitine, reference compound]
[1]; Arn8 cells stable transfected with a β-galactosidase reporter gene
  p53 (effect): induction of p53 protein: ++
[1]; Arn8 reporter cell line, β-galactosidase reporter activity
  activation of p53-dependent transcription: proved to activate p53-dependent transcription
[2]
  expression of p53, p21^Waf1 and Mcl-1: accumulation of tumor suppressor protein p53, expression of p53-regulated CDK inhibitor p21^Waf1 and downregulation of antiapoptotic protein Mcl-1
[3]
  levels of serine 2 and serine 5 phosphorylation of RNA polymerase II CTD: substantially reduced; also recorded: is inhibited
[4]
  EFFECT (modulation of the activity of β-adrenergic receptors): inactive
[5]
  expression of anti-apoptotic protein Mcl-1: suppressed more efficiently at 30 °C
